These results are taken from US20250230156A1, “CRYSTAL FORM OF ALLYL-CONTAINING METHYLPYRIDOPYRIMIDINE COMPOUND” (MEDSHINE DISCOVERY INC., priority 2022, published 2025).

For assay [1], the system named is p-ERK in DLD-1 cells (KRAS G13D mutation). The assay is described as follows: pERK expression levels in DLD-1 cells using HTRF. It is filed as cell-based. The conditions noted are these: Homo sapiens, 1.5 h compound incubation, read-out: Inhibitory activity against p-ERK in DLD-1 cells IC50. On the procedure:
The phosphorylation level of ERK protein in DLD-1 cells with KRAS G13D mutation was detected by the Homogeneous Time-Resolved Fluorescence (HTRF) method, and the IC50 and IC90 values of compounds are employed as indicators to evaluate the inhibitory activity of these compounds towards ERK phosphorylation within the RAS signaling pathway.
1) DLD-1 cells (50,000 cells/well) were seeded into a 96-well plate, and each well was filled with 90 μL of RPMI-1640 medium (10% fetal bovine serum), and then placed in a 37° C., 5% carbon dioxide incubator for overnight culture.
10 μL of DMSO-cell culture medium mixture were added to the solvent control and positive control, with a final DMSO concentration of 0.25%. The 96-well cell plate was then returned to the incubator for 1.5 h of culture.
4) The cell supernatant was removed, and 50 μL of 1× lysis buffer was immediately added, followed by shaking and incubation at room temperature for 30 min.
5) A pipette was used to blow and mix the solution evenly, and 16 μL of cell lysate was transferred from the 96-well plate to the HTRF 384-well detection plate.
6) 4 μL of pre-mixed antibody solution were added, the plate was sealed, and incubated at 4° C. The fluorescence emission intensities at 665 nm and 620 nm were detected using an HTRF plate reader. […]
Background: TR-FRET usually uses a lanthanide donor and a delayed reading to cut background.

The subject of a further assay is H358 cells. The assay is described as follows: Anti-cell proliferation experiment of H358 cell 3D model (soft agar). It is filed as cell-based. The note with it: Homo sapiens, 336 h; NCI-H358, soft agar, 14 days co-incubation, Almar blue; read-out: Anti-proliferation inhibitory activity in H358 cell 3D model IC50. As to the method:
RPMI1640 medium, fetal bovine serum, and penicillin/streptomycin antibiotics were purchased from Wisent, and low-melting agarose was purchased from Sigma. Almar blue reagent was purchased from Invitrogen. NCI-H358 cell line was purchased from Nanjing CoBioer Co., Ltd. Nivo multi-label analyzer (PerkinElmer).
H358 cells were seeded into a 96-well U-shaped plate. First, low-melting agarose was prepared into a 2% stock solution. Before use, the agarose stock solution was heated in a microwave oven to completely melt it, and then placed in a 42° C. water bath to keep the agarose in a liquid state. The gel was added to the serum-containing medium to prepare a gel with a concentration of 0.6% as the bottom layer gel, which was then dispensed into the 96-well U-shaped plate at 50 μL per well. After the bottom layer gel solidifies, 2% gel was added to the cell-containing medium to prepare a cell-containing top layer gel with a gel concentration of 0.4%. The cell density was […], and 75 μL was added to each well of the 96-well U-shaped plate with the bottom layer gel, resulting in a cell density of 3000 cells per well. […]
On the day of compound addition, 85 μL of liquid medium is added to the 96-well U-shaped plate with pre-seeded cells. […] The readings were taken using a multi-label analyzer. […]

A further assay has as its target T1, KRAS (G12C) and SOS1 (Homo sapiens, UniProt Q07889).
T1 sequence (Q07889 564-1049): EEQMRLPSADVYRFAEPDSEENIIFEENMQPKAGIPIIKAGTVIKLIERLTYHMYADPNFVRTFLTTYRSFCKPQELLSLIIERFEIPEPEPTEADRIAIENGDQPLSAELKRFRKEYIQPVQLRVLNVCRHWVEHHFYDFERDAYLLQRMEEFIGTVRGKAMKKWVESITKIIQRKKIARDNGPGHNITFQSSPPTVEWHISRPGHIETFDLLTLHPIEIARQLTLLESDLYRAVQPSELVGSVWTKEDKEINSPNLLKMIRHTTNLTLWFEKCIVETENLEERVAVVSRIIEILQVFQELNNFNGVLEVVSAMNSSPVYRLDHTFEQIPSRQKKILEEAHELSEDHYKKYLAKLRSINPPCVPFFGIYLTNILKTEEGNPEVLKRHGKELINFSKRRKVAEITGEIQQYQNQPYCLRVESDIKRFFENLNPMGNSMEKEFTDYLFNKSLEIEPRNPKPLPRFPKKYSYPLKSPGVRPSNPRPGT
Kind of assay: KRAS (G12C) and SOS1 binding experiment (HTRF). The conditions noted are these: SOS1 exchange domain (564-1049), 25° C. for 60 min, read-out: KRAS (G12C) and SOS1 binding inhibitory activity IC50. On the procedure: The multi-functional microplate reader Nivo5 was purchased from PerkinElmer.
Preparation method: 4-hydroxyethylpiperazine ethyl sulfonate (Hepes): 5 mM; sodium chloride (NaCl): 150 mM; ethylenediaminetetraacetic acid (EDTA): 10 mM, CO-630 (Igepal): 0.0025%, potassium fluoride (KF): 100 mM; dithiothreitol (DTT): 1 mM; and bovine serum albumin (BSA): 0.05%.
1) The test compound was diluted five-fold using DMSO with a multi-channel pipette until the 8th concentration was achieved, starting from 1 mM and ending at 0.064 μM.
2) The various gradients of the test compound were diluted with 1 buffer to form working solutions containing 2% DMSO. 5 μL of each working solution was then dispensed into the corresponding wells, with a concentration gradient ranging from 20 μM to 0.00128 nM. Duplicate well experiment was set up for each concentration. Following this, the plate was centrifuged at 1000 rpm for 1 min.
3) A mixed working solution containing KRAS (G12C) at a concentration of 200 nM and Mab Anti GST-Eu cryptate at a concentration of […] was prepared using 1× buffer. […]
4) A mixed working solution containing SOS1 at a concentration of 80 nM and Mab Anti 6HIS-XL665 at a concentration of […] was prepared using 1× buffer. […] After the reaction was completed, the HTRF was read using a multi-label analyzer. […]

Regarding `C=C[C@@H](Nc1nc(C)nc2cc(=O)n(C3(C(F)F)CC3)cc12)c1cccc(C(F)F)c1F` [Compounds as shown in formula (I)], the IC50 in assay [1] stood at 37 nM; in the assay on H358 cells it was 91 nM; on KRAS (G12C) and SOS1 it was 13 nM.
